Test results published in ChEMBL document CHEMBL1201862, “PubChem BioAssay data set” (2004).
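A five-concentration, 48-hour dose response in 96-well plates underlies each endpoint, interpolated linearly between surrounding concentrations. GI50 = concentration required for 50% inhibition of growth.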 Activity calls are given as the source filed them. Cut-off read from the data, not from the text of the source: active = GI50 up to about 1.1 µM and inactive = higher.

What was measured:
Assay in all cases: NCI tumour cell line growth inhibition, 48 h
[1] = system: HCC 2998
[2] = system: SN12C
[3] = system: HOP-62
[4] = system: OVCAR-3
[5] = system: LOX IMVI
[6] = system: SW-620
[7] = system: NCI-H460
[8] = system: KM12
[9] = system: RXF 393
[10] = system: NCI-H226
[11] = system: ACHN
[12] = system: OVCAR-8
[13] = system: Malme-3M
[14] = system: UACC-257
[15] = system: HCT-15
[16] = system: SF-295
[17] = system: A549
[18] = system: OVCAR-5
[19] = system: DU-145
[20] = system: Hs-578T

| SMILES | GI50 [1] | GI50 [2] | GI50 [3] | GI50 [4] | GI50 [5] | GI50 [6] | GI50 [7] | GI50 [8] | GI50 [9] | GI50 [10] | GI50 [11] | GI50 [12] | GI50 [13] | GI50 [14] | GI50 [15] | GI50 [16] | GI50 [17] | GI50 [18] | GI50 [19] | GI50 [20] |
| --- | --- | --- | --- | --- | --- | --- | --- | --- | --- | --- | --- | --- | --- | --- | --- | --- | --- | --- | --- | --- |
| CC1=C(/C=C/C(C)=C/C=C/C(C)=C/C=C/C=C(C)/C=C/C=C(C)/C=C/C2=C(C)C(=O)C(O)CC2(C)C)C(C)(C)CC(O)C1=O (stereo not given) | > 100 µM (inactive) | > 100 µM (inactive) | > 100 µM (inactive) | > 100 µM (inactive) | > 100 µM (inactive) | > 100 µM (inactive) | > 100 µM (inactive) | > 100 µM (inactive) | > 100 µM (inactive) | > 100 µM (inactive) | > 100 µM (inactive) | > 100 µM (inactive) | > 100 µM (inactive) | > 100 µM (inactive) | > 100 µM | > 100 µM (inactive) | > 100 µM (inactive) | > 100 µM (inactive) | – | – |
| c1ccc2c3nc(C4CCCC4)nc-3c(NC3CCCC3)[nH]c2c1 | 6.76 µM (inactive) | 32.7 µM (inactive) | 19.1 µM (inactive) | 12.5 µM (inactive) | 15.8 µM (inactive) | 5.43 µM (inactive) | 8.04 µM (inactive) | 7.08 µM (inactive) | 14.7 µM (inactive) | 24.7 µM (inactive) | 25.7 µM (inactive) | 6.87 µM (inactive) | 16.6 µM (inactive) | 5.94 µM (inactive) | 8.49 µM | 16.8 µM (inactive) | 21 µM (inactive) | 22.5 µM (inactive) | – | – |
| O=c1c(/C=C/c2c(O)ccc3ccccc23)nnc2sc(-c3cccc([N+](=O)[O-])c3)nn12 | – | 9.33 µM (inactive) | 18.2 µM (inactive) | 2.73 µM (inactive) | 6.56 µM (inactive) | 3.03 µM (inactive) | – | 22.1 µM (inactive) | 19.4 µM (inactive) | – | 5.12 µM (inactive) | 13.7 µM (inactive) | 11.4 µM (inactive) | 13.2 µM (inactive) | 4.43 µM | 26.8 µM (inactive) | – | 33 µM (inactive) | 8.38 µM (inactive) | 12.5 µM (inactive) |
| CCOC(=O)/N=c1\ss/c(=N\C(=S)N(C)C)n1-c1ccccc1 | > 10 µM (inactive) | > 10 µM (inactive) | 42.5 µM (inactive) | 0.394 µM (active) | > 100 µM (inactive) | > 10 µM (inactive) | 2.7 µM (inactive) | 8.63 µM (inactive) | 1.07 µM (active) | > 10 µM (inactive) | 52.1 µM (inactive) | > 10 µM (inactive) | > 10 µM (inactive) | > 10 µM (inactive) | > 10 µM | 29.7 µM (inactive) | 1.11 µM (active) | > 100 µM (inactive) | – | – |
| CCSC1=N/C(=C\c2ccco2)C(=O)N1 | – | > 100 µM (inactive) | > 100 µM (inactive) | > 100 µM (inactive) | > 100 µM (inactive) | > 100 µM (inactive) | – | > 100 µM (inactive) | – | > 100 µM (inactive) | > 100 µM (inactive) | > 100 µM (inactive) | > 100 µM (inactive) | – | > 100 µM | > 100 µM (inactive) | > 100 µM (inactive) | > 100 µM (inactive) | > 100 µM (inactive) | > 100 µM (inactive) |
| CCC(=O)Nc1nc2c(ncn2C2OC(COC(=O)CC)C(OC(=O)CC)C2OC(=O)CC)c(=O)[nH]1 (stereo not given) | > 100 µM (inactive) | > 100 µM (inactive) | > 100 µM (inactive) | > 100 µM (inactive) | > 100 µM (inactive) | > 100 µM (inactive) | > 100 µM (inactive) | > 100 µM (inactive) | > 100 µM (inactive) | > 100 µM (inactive) | > 100 µM (inactive) | > 100 µM (inactive) | > 100 µM (inactive) | > 100 µM (inactive) | > 100 µM | > 100 µM (inactive) | > 100 µM (inactive) | > 100 µM (inactive) | – | – |
| COC(CNC(=O)C(C)NC(=O)CCc1ccccc1)OC (stereo not given) | – | > 100 µM (inactive) | – | – | – | > 100 µM (inactive) | > 100 µM (inactive) | > 100 µM (inactive) | > 100 µM (inactive) | > 100 µM (inactive) | > 100 µM (inactive) | > 100 µM (inactive) | > 100 µM (inactive) | > 100 µM (inactive) | > 100 µM | > 100 µM (inactive) | > 100 µM (inactive) | > 100 µM (inactive) | > 100 µM (inactive) | > 100 µM (inactive) |
| N#Cc1c(O)c(/C=N/c2ncccn2)c(=O)n2c1[nH]c1ccccc12 | > 100 µM (inactive) | > 100 µM (inactive) | – | > 100 µM (inactive) | > 100 µM (inactive) | > 100 µM (inactive) | > 100 µM (inactive) | > 100 µM (inactive) | > 100 µM (inactive) | > 100 µM (inactive) | – | > 100 µM (inactive) | > 100 µM (inactive) | > 100 µM (inactive) | > 100 µM | > 100 µM (inactive) | > 100 µM (inactive) | > 100 µM (inactive) | – | > 100 µM (inactive) |
| N#CCCN(CCC#N)c1ccc(/C=N\c2ccc(F)cc2)cc1 | 1.33 µM (inactive) | > 75 µM (inactive) | 27.1 µM (inactive) | > 79.1 µM (inactive) | 0.236 µM (active) | 19.3 µM (inactive) | 7.01 µM (inactive) | – | > 57 µM (inactive) | > 100 µM (inactive) | 3.16 µM (inactive) | > 100 µM (inactive) | > 84.3 µM (inactive) | > 100 µM (inactive) | 1.15 µM | 12.3 µM (inactive) | 43.1 µM (inactive) | – | > 100 µM (inactive) | – |
| COCN1C(=O)[C@@H]2CCCN2C(=O)c2cc(N)ccc21 | – | > 100 µM (inactive) | > 100 µM (inactive) | – | > 100 µM (inactive) | > 100 µM (inactive) | – | > 100 µM (inactive) | > 100 µM (inactive) | – | > 100 µM (inactive) | > 100 µM (inactive) | > 100 µM (inactive) | > 100 µM (inactive) | > 100 µM | > 100 µM (inactive) | > 100 µM (inactive) | > 100 µM (inactive) | > 100 µM (inactive) | > 100 µM (inactive) |
| N#CCCC1(CCC#N)CCc2ccccc2C1=O | > 100 µM (inactive) | > 100 µM (inactive) | > 100 µM (inactive) | > 100 µM (inactive) | > 100 µM (inactive) | > 100 µM (inactive) | > 100 µM (inactive) | > 100 µM (inactive) | – | > 100 µM (inactive) | > 100 µM (inactive) | > 100 µM (inactive) | > 100 µM (inactive) | > 100 µM (inactive) | > 100 µM | – | – | > 100 µM (inactive) | > 100 µM (inactive) | – |
| CS(=O)(=O)N(CCC#N)c1ccc(/C=C2\N=C(c3ccccc3Cl)OC2=O)cc1 | > 100 µM (inactive) | > 100 µM (inactive) | > 100 µM (inactive) | > 100 µM (inactive) | > 100 µM (inactive) | > 100 µM (inactive) | > 100 µM (inactive) | > 100 µM (inactive) | > 100 µM (inactive) | > 100 µM (inactive) | > 100 µM (inactive) | > 100 µM (inactive) | > 100 µM (inactive) | > 100 µM (inactive) | > 100 µM | > 100 µM (inactive) | > 100 µM (inactive) | > 100 µM (inactive) | – | – |
| CN(Cc1cnc2nc(N)nc(N)c2n1)c1ccc(C(=O)NC(CCS(=O)(=O)O)C(=O)O)cc1 (stereo not given) | 0.916 µM (active) | 4.57 µM (inactive) | 0.783 µM (active) | 3.46 µM (inactive) | 0.103 µM (active) | 0.379 µM (active) | 0.409 µM (active) | 0.661 µM (active) | – | 15.7 µM (inactive) | 0.527 µM (active) | 21.9 µM (inactive) | – | > 100 µM (inactive) | 0.25 µM | 0.681 µM (active) | 0.421 µM (active) | 0.144 µM (active) | – | > 100 µM (inactive) |
| O=C(O)COc1cc(-c2ccccc2F)nc2cc3c(cc12)OCO3 | > 100 µM (inactive) | > 100 µM (inactive) | > 100 µM (inactive) | > 100 µM (inactive) | > 100 µM (inactive) | > 100 µM (inactive) | – | > 100 µM (inactive) | > 100 µM (inactive) | > 100 µM (inactive) | > 100 µM (inactive) | > 100 µM (inactive) | > 100 µM (inactive) | > 100 µM (inactive) | > 100 µM | > 100 µM (inactive) | > 100 µM (inactive) | > 100 µM (inactive) | > 100 µM (inactive) | – |
| C[C@@]12CCC(=O)c3coc(c31)C(=O)c1cc3c(cc12)C(=O)C=CC3=O [HELENAQUINONE] | > 71.3 µM (inactive) | 16.6 µM (inactive) | > 100 µM (inactive) | 18.7 µM (inactive) | 8.59 µM (inactive) | 19.1 µM (inactive) | 26.6 µM (inactive) | 24.7 µM (inactive) | 21.2 µM (inactive) | 29 µM (inactive) | 16.5 µM (inactive) | 16.3 µM (inactive) | 17.3 µM (inactive) | 11.6 µM (inactive) | 17.3 µM | 16.7 µM (inactive) | 45.2 µM (inactive) | 20 µM (inactive) | – | – |
| COc1ccc(CC(C)N)cc1 (stereo not given) [PARA-METHOXYAMPHETAMINE] | > 100 µM (inactive) | > 100 µM (inactive) | > 100 µM (inactive) | > 100 µM (inactive) | > 100 µM (inactive) | > 100 µM (inactive) | > 100 µM (inactive) | > 100 µM (inactive) | > 100 µM (inactive) | > 100 µM (inactive) | > 100 µM (inactive) | > 100 µM (inactive) | > 100 µM (inactive) | > 100 µM (inactive) | > 100 µM | > 100 µM (inactive) | > 100 µM (inactive) | > 100 µM (inactive) | – | – |
